The source of these data is patent publication US5939437A, “CCK and gastrin receptor ligands” (James Black Foundation Limited, priority 1994, dated 1999).

In assay [1] the target is T1, CCKB (Mus musculus, UniProt P56481).
T1 construct: The cortex was dissected, weighed and homogenised in 40 ml ice-cold buffer; from tissue; host or cells: cerebral cortex membranes of male CD1 mice (Charles River)
T1 sequence (P56481 1-453): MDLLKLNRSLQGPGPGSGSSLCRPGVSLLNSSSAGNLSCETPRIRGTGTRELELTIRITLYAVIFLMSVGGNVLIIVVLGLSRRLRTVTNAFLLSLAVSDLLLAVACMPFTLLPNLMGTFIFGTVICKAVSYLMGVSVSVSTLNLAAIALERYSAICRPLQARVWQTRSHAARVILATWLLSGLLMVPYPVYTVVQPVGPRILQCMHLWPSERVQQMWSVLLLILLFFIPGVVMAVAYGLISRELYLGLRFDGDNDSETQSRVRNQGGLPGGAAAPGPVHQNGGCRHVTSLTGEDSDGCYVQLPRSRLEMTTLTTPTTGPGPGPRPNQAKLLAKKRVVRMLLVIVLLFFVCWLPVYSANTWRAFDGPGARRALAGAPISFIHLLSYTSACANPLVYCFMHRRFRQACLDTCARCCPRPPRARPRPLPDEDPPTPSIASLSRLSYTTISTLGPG
As to the kind of experiment: radioligand binding assay at the CCKB (CCK8 [sic]) receptor in mouse cortical membranes. Particulars: [125I]-CCK8S 200 pM, 150 min at 21±3° C.; for Ki: read-out: CCKB pKi (converted). Here is the method:
The compounds of the examples were tested for binding at the CCK8 receptor in mouse cortical membranes by means of a radioligand binding assay. The procedure was as follows: The whole brains from male mice (CD1 22-25 g; Charles River) were removed and placed in ice-cold buffer (pH7.2@21±3° C.) of the following composition (mM); 10 HEPES, 130 NaCl, 4.7 KCl, 5 MgCl2, 1 EDTA and containing 0.25 g.1^-1 bacitracin. The cortex was dissected, weighed and homogenised in 40 ml ice-cold buffer using a Teflon-in-glass homogeniser. The homogenate was centrifuged at 39,800 g for 20 min at 4° C., the supernatant discarded and the pellet resuspended by homogenisation in fresh buffer. The homogenate was recentrifuged (39,800 g; 20 min@4° C.) and the final pellet was resuspended in HEPES buffer to give a tissue concentration of 2 mg.ml^-1 (original wet weight). The membranes ([…]) were incubated for 150 min at 21±3° C. in a final volume of 0.5 ml with HEPES buffer containing [^25 I]-CCK8S (0.05 ml; 200 pM NEN 2200 Ci.mmol^-1) and competing compound. Total and non-specific binding of [^125 I]-CCK8S were defined using 0.05 ml of buffer and 0.05 ml of […] L-365,260, respectively. The assay was terminated by rapid filtration through pre-soaked Whatman GF/B 35 filters using a Brandell Cell harvester. The filters were washed (3×3 ml) with ice-cold 5 mM Tris-HCl (pH7.4@4° C.) and bound radioactivity determined by counting (1 min.) in a gamma-counter.

Assay [2] has as its target T2, Gastrin (Rattus norvegicus, UniProt P30553).
T2 construct: The stomach was excised and flushed with ca. 1 ml unbuffered physiological saline solution; from tissue; host or cells: isolated whole stomach of immature rats (33-50 g, ca. 21 days old)
T2 sequence (P30553 1-452): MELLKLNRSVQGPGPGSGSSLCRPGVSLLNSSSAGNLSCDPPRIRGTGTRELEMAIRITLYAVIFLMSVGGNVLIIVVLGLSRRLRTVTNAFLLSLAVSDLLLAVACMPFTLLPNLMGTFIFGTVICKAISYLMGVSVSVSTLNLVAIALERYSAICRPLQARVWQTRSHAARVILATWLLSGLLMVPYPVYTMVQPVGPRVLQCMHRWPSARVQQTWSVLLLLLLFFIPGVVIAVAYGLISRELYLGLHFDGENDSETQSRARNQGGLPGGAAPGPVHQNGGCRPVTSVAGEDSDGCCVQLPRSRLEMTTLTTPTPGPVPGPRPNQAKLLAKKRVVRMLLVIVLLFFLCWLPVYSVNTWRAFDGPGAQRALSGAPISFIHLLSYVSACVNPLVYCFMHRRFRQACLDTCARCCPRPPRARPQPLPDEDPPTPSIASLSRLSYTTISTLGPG
As to the kind of experiment: gastrin antagonist activity in an immature rat stomach assay (pentagastrin-stimulated acid secretion, isolated stomach). The settings on record: cumulative pentagastrin dose-response curves, 60 min after drug; for Kb: read-out: Gastrin pKB (converted). Here is the method:
The compounds of the examples were also tested for gastrin antagonist activity in an immature rat stomach assay. The procedure was follows:
The oesophagus of immature rats (33-50 g, ca. 21 days old) was ligated at the level of the cardiac sphincter and the duodenal sphincter was cannulated. The stomach was excised and flushed with ca. 1 ml unbuffered physiological saline solution. The fundus was punctured and cannulated. A further 4-5 ml of unbuffered solution was flushed through the stomach to ensure the preparation was not leaking. The stomach was lowered into a jacketed organ bath containing 40 ml of buffered solution containing 3×10^-8 M5methylfurmethide, maintained at 37° and gassed vigorously with 95% O2 /5% CO2. The stomach was continuously perfused at a rate of 1 ml min^-1 with unbuffered solution gassed with 100% O2 with the perfusate passing over an internally referenced pH-electrode fixed 12 cm above the stomach.
After 120 min of stabilisation the drugs were added directly to the serosal solution in the organ bath and after a further 60 min cumulative pentagastrin dose-response curves were started. Changes in acid secretion were monitored and the curves analysed according to Black et. al., Br. J. Pharmacol., 1985, 86, 581.

For assay [3], the target named is T3, CCKA (Cavia porcellus, UniProt Q63931).
T3 construct: The pancreatata were homogenised in 40 ml ice-cold HEPES buffer; from tissue; host or cells: pancreas membranes of male Dunkin Hartley guinea-pigs
T3 sequence (Q63931 1-430): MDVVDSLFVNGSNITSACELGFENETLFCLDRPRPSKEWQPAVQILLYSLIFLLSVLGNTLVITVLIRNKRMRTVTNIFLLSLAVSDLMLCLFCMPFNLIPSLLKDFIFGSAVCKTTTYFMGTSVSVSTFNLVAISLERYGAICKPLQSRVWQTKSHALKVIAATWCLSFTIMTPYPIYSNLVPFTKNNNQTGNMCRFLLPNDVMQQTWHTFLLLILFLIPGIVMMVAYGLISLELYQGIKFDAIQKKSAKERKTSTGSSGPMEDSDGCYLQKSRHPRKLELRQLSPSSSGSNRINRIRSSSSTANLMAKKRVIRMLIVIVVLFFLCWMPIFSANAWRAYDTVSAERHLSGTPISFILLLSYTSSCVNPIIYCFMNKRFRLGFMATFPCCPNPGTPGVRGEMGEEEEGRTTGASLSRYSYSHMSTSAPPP
As to the kind of experiment: CCKA binding assay (guinea-pig pancreas membranes). The settings on record: [125I]-CCK8(S) 200 pM, 0.375 μM PD134,308 present, 150 minutes at 21±3° C.; for Ki: read-out: CCKA pKi (converted). The protocol: The compounds of the examples were also tested in a CCKA binding assay as follows:
The pancreatata were removed from male guinea-pigs (200-300 g; Dunkin Hartley) and placed in ice-cold HEPES buffer (pH 7.2@21 ±3° C.). The pancreatata were homogenised in 40 ml ice-cold HEPES buffer using a polytron (Brinkman, PT10, setting 10) 4×1 second. The homogenate was centrifuged at 39,800 g for 15 min at 4° C. The supernatant was discarded and the pellet re-suspended using a Teflon-in-glass homogeniser in 20 volumes of fresh buffer and re-centrifuged as above. The final pellet was re-suspended using a Teflon-in-glass homogeniser to a tissue concentration of 1 mg.ml^-1 (original wet weight), and filtered through 500 μm pore-size Nytex mesh.
The membranes (400 μl; containing 0.375 μM PD134,308) are incubated for 150 minutes at 21±3° C. in a final volume of 0.5 ml with HEPES buffer containing [^125 I]-CCK8 (S) (50 μl; 200 pM) and competing compound. Total and non-specific binding of [^125 I]-CCK^8 (S) are defined using 50 μl of buffer and 50 μl of 100 nM L-364,718respectively. The assay is terminated by rapid filtration through pre-soaked Whatman GF/B filters using a Brandell Cell Harvester. The filters were washed (3×3 ml) with ice-cold 50 mM Tris HCl (pH 7.4 at 4° C. and bound radioactivity is determined by counting (1 min) in a gamma counter.

For `O=C(O)c1cc(NC(=O)[C@H](Cc2ccccc2)NC(=O)c2ccccc2C(=O)NCC23CC4CC(CC(C4)C2)C3)cc(C(=O)O)c1` [Example 1, (1S-(3,5-dicarboxyphenylaminocarbonyl)-2-phenylethylaminocarbonyl)-2-(1-adamantanemethylaminocarbonyl)-benzene], the Ki in assay [1] was 79.4 nM. For the same molecule, the Kb in assay [2] is 3.98 nM. In addition, in assay [3], the “CCKA pKi” value stood at 5.5.
For the molecule `O=C(O)c1cc(NC(=O)[C@H](Cc2ccccc2)NC(=O)c2ccccc2C(=O)NCC2CCCCCC2)cc(C(=O)O)c1` [Example 7, (1R-(3,5-dicarboxyphenylaminocarbonyl)-2-phenylethylaminocarbonyl)-2-(cycloheptanemethylaminocarbonyl)-benzene], the “CCKB pKi” value in assay [1] is 6.5. Also, the “Gastrin pKB” value in assay [2] is on record as 6.3. The “CCKA pKi” value in assay [3] amounted to 5.9.
Regarding `O=C(O)c1cc(NC(=O)[C@@H](Cc2ccccc2)NC(=O)c2ccccc2C(=O)NCC23CC4CC(CC(C4)C2)C3)cc(C(=O)O)c1` [Example 3, (1R-(3,5-dicarboxyphenylaminocarbonyl)-2-phenylethylaminocarbonyl)-2-(1-adamantanemethylaminocarbonyl)-benzene], the Ki in assay [1] was 398 nM; in assay [3], 7.94 µM. The Kb in assay [2] is 15.8 nM.
Turning to `O=C(O)c1cc(NC(=O)[C@H](Cc2ccccc2F)NC(=O)c2ccccc2C(=O)NCC23CC4CC(CC(C4)C2)C3)cc(C(=O)O)c1` [Example 4], in assay [1], the “CCKB pKi” value is listed as 7.0. Further, in assay [2], the “Gastrin pKB” value amounted to 7.7. Moreover, in assay [3], the “CCKA pKi” value was found to be 5.3.
For the molecule `O=C(O)c1cc(NC(=O)[C@H](Cc2ccccc2)NC(=O)c2c[nH]cc2C(=O)NCC23CC4CC(CC(C4)C2)C3)cc(C(=O)O)c1` [Example 13, 3-(1S-(3,5-dicarboxyphenylamino-carbonyl)-2-phenylethylaminocarbonyl)-4-(1-adamantanemethylamino-carbonyl)pyrrole], the Ki in assay [1] is 63.1 nM; in assay [3], 2 µM. Besides, the Kb in assay [2] was 25.1 nM.
Taken in the same sequence, the figures for `O=C(O)c1cc(NC(=O)[C@H](Cc2ccccc2)NC(=O)c2ncccc2C(=O)NCC23CC4CC(CC(C4)C2)C3)cc(C(=O)O)c1` [Example 10, 2-(1S-(3,5-dicarboxyphenylamino-carbonyl)-2-phenylethylaminocarbonyl)-3-(1-adamantanemethylamino-carbonyl)pyridine] were 794 nM, 2 µM and 39.8 nM.
Taken in the same sequence, the figures for `Nc1ccc(C(=O)N[C@@H](Cc2ccccc2)C(=O)Nc2cc(C(=O)O)cc(C(=O)O)c2)c(C(=O)NCC23CC4CC(CC(C4)C2)C3)c1` [Example 16, 1-(1S-(3,5-dicarboxyphenylamino-carbonyl)-2-phenylethylaminocarbonyl)-2-(1-adamantanemethyl-25 aminocarbonyl)-4-aminobenzene] were 200 nM, 3.98 µM and 63.1 nM.
Taken in the same sequence, the figures for `O=C(O)c1cc(NC(=O)[C@H](Cc2ccccc2)NC(=O)c2cccc3c2C(=O)N(CC24CC5CC(CC(C5)C2)C4)C3)cc(C(=O)O)c1` [Example 26, 7-(1S-(3,5-dicarboxyphenylamino-carbonyl)-2-phenylethylaminocarbonyl)-2-(1-adamantanemethyl)indol-1-one] were 100 nM, 3.16 µM and 63.1 nM.
Regarding `O=C(O)c1cc(NC(=O)[C@H](Cc2ccccc2)NC(=O)c2ccc([N+](=O)[O-])cc2C(=O)NCC23CC4CC(CC(C4)C2)C3)cc(C(=O)O)c1` [Example 14, 1-(1S-(3,5-dicarboxyphenylamino-carbonyl)-2-phenylethylaminocarbonyl)-2-(1-adamantanemethyl-aminocarbonyl)-4-nitrobenzene], the results for the Ki in assay [1] and in assay [3] were 501 nM and 3.16 µM, respectively. The Kb in assay [2] is 100 nM.
For the molecule `O=C(Cc1ccccc1C(=O)NCC12CC3CC(CC(C3)C1)C2)N[C@@H](Cc1ccccc1)C(=O)Nc1cc(C(=O)O)cc(C(=O)O)c1` [Example 8, (1S-(3,5-dicarboxyphenylaminocarbonyl)-2-phenylethylaminocarbonylmethyl)-2-(1-adamantanemethylamino-carbonyl)benzene], the Ki is 158 nM in assay [1] and 3.16 µM in assay [3].
